Values joined by “and” are separate entries in the source; they are usually repeats but may differ in a detail not shown here. Equal values may be shown once.
Legend:
[1] = Small-angle neutron scattering (SANS) of liposomes as a function of temperature; assay type: physicochemical; set-up: key to Eccentricity: ε = c/R axis ratio; <1 oblate, 1 spherical, >1 prolate
From the text: In order to determine the structural parameters, including the bilayer thickness of the selected liposomal formulations, a suitable model for data fitting has to be identified. […] The structure factor was fitted using the sticky hard sphere model (Baxter et al., The Journal of Chemical Physics 1968, 49 (6), 2770-2774; Mays, Langmuir 1989, 5, 422-428). In order to adjust the form factor to the overall shape of the liposomes, an ellipsoidal shell model with a homogeneous cross-section (Guinier, Annales de Physique, 1939; pp 161-237) was applied. The elliptical shell model is defined by three orthogonal axes with lengths a=R, b=R and c=εR, along with eccentricity ε>0, (ε<1: oblate, ε=1: spherical, ε>1: prolate). The model also accounts for variations in bilayer thickness and liposome size. As the scattering data of the Pad-PC-Pad liposomes at the temperature of 35° C. could not be approximated satisfactorily by means of the ellipsoidal shell, the inventors included disks with a homogeneous cross-section—an approach motivated by the cryo-TEM results. Together with the experimental data of the Pad-PC-Pad liposomes at three selected temperatures, the obtained fits are represented in FIG. 23.
The inventors recognised that the inhomogeneity of the liposomal formulations, except for Pad-PC-Pad, concerning the shape and size of the artificial lipids in this study only allows for the reasonable fitting of the q-range, which corresponds to bilayer thickness. For this purpose, the inventors applied an extended Guinier law (Hjelm et al., The Journal of Physical Chemistry B 2000, 104 (2), 197-211; Fratzl, Journal of Statistical Physics 1994, 77 (1-2), 125-143), which yields the thickness of the bilayer. To account for possible multi-lamellarity, the inventors included a para-crystalline stacking model (Schwartz et al., Biophysical journal 1975, 15 (12), 1201-1233; FruÈhwirth et al., Journal of Applied Crystallography 2004, 37 (5), 703-710) as a structure factor.
SANS measurements were performed at the SANS-I beamline at the Swiss Spallation Neutron Source SINQ facility (Paul Scherrer Institute, Villigen, Switzerland). The samples were loaded into 2 mm-path length, boron-free quartz glass cells and mounted in a temperature-controlled holder. This system allows for controlling the temperature of the specimen with an accuracy better than 1 K. The liposomal suspensions were measured between 22 and 42° C. in 3 to 4 K steps. Subsequently, the suspensions were cooled down to room temperature (22° C.) and measured again. Three detector distances, i.e. 1.6, 6.0 and 18.0 m, were used to collect data over the range of scattering vectors 0.01 nm^−1<q<10 nm^−1 at the neutron wavelengths (A) […]. Data were collected with a two-dimensional ^3He-detector with an array of 128×128 pixels and reduced to one-dimensional I(q) scattering curves, thus radially averaging the two-dimensional images. The data were corrected for transmission, background scattering and detector efficiency according to a standard procedure using the BerSANS software package (Keiderling, Applied Physics A 2002, 74 (1), s1455-s1457; Strunz et al., Journal of Applied Crystallography 2000, 33 (3 Part 1), 829-833).
The SANS data were analysed using SASfit software (Breßler et al., Journal of Applied Crystallography 2015, 48 (5), 1587-1598) and corresponding models. A Pad-PC-Pad sample was fitted over the entire measured q-range, whereas we restricted the fit for the other samples to the q-range, which corresponds to lipid bilayer thickness. For Pad-PC-Pad, the inventors used an ellipsoidal shell model with a homogeneous cross-section (Guinier, Annales de Physique, 1939; pp 161-237) and size distributions in terms of both thickness and radius. […]

[2] = Differential scanning calorimetry, main phase transition of vesicle membranes; assay type: physicochemical; conditions: for Tm: main phase transition temperature of liposome membrane
From the text: Interdigitation of membrane leaflets also influences the membranes main-phase transition temperature. […] Also, the value for the bilayer main-phase transition temperature is 11.5 K higher than the calculated critical temperature from the monolayer experiments, where no interdigitation is possible.

[3] = reported previously; cited from earlier work
[4] = Release experiments with 5(6)-carboxyfluorescein-loaded large unilamellar vesicles (LUVET100), spontaneous and vortex-triggered; assay type: physicochemical; conditions: for Release at RT after 60 s vortex / Release 37° C. after 60 s vortex: mechanically induced release, 60 s vortexing; for Release at RT after 60 s vortex / Release at RT after 7 days: 22° C. (RT); for Release at RT after 7 days: spontaneous release of 5(6)-carboxyfluorescein; for release at 37° C. without vortexing: without vortexing/shaking
From the text: FIG. 8 Release experiments using 5(6)-carboxyfluorescein-loaded large unilamellar vesicles comprising 1,3-diheptadecanamidopropan-2-yl (2-(trimethylammonio) ethyl) phosphate (4) obtained via extrusion through a 100 nm track-edged filter membrane (LUVET100). Triggered release was induced by shaking the samples for a specific amount of time on a vortex-shaker.
Previously the inventors reported the 5(6)-carboxyfluorescein release from vesicles containing 1,3-palmitoylamido-1,3-deoxy-sn-glycero-2-phosphatidylcholine (2) (Holme et al., Nat. Nanotechnol. 2012, 7, 536-543). […] Increasing the Tm promises improved release properties. […] This leads to a lower leakage of the vesicles at 22° C. (room temperature) as well as 37° C. (average human body temperature) (FIG. 8). A prolongation if the acyl chain to the artificial C18 phospholipid 1,3-stearoylamido-1,3-deoxy-sn-glycero-2-phosphatidylcholine leads to an increased Tm of 52° C., but this phospholipid forms almost no liposomes anymore.
Each sample was treated with Triton X-100 to induce a full release of 5(6)-carboxy fluorescein.
Large unilamellar vesicles with a diameter of 100 nm (LUVET100) of the 1,3-diheptadecanamidopropan-2-yl (2-(trimethylammonio) ethyl) phosphate (4) were prepared following the extrusion protocol: in a 25 ml round bottom flask, 10 mg of the lipid was dissolved in CH2Cl2. After evaporation of the organic solvent, the film was further dried under high vacuum (40 mbar) overnight. Then the film was hydrated with the internal buffer for 30 min (1 ml, 50 mM 5(6)-carboxyfluorescein, 10 mM HEPES buffer (AppliChem), 10 mM NaCl dissolved in pure water, pH 7.4). Now at least 5 freeze-thaw cycles (liquid N2 to 65° C.) were carried out before the suspension was extruded 11 times using a Mini Extruder (Avanti Polar Lipids, USA) using track-edged filters with a mesh size of 100 nm (Whatman, USA). The external buffer was then exchanged on a size exclusion column (1.5×20 cm Sephadex G-50 column) in external buffer (107 mM NaCl dissolved in ultrapure water, 10 mM HEPES, pH 7.4).

[5] = 22 ° C. (after cooling down to room temperature)
[6] = 35 ° C., contribution for disks accounted for
[7] = LUVs, heating and cooling rates of 0.5° C./min

CCCCCCCCCCCCCCCC(=O)OC[C@H](COP(=O)([O-])OCC[N+](C)(C)C)OC(=O)CCCCCCCCCCCCCCC [DPPC, 1,2-dipalmitoyl-sn-glycero-3-phosphocholine]
most probable bilayer thickness ([1]; 22 ° C.): 4.59 nm
most probable bilayer thickness [1, 5]: 4.67 nm
most probable bilayer thickness ([1]; 25 ° C.): 4.58 nm
most probable bilayer thickness ([1]; 28 ° C.): 4.62 nm
most probable bilayer thickness ([1]; 32 ° C.): 4.61 nm
most probable bilayer thickness ([1]; 35 ° C.): 4.61 nm
most probable bilayer thickness ([1]; 39 ° C.): 4.65 nm
most probable bilayer thickness ([1]; 42 ° C.): 4.65 nm
Tm [2]: 41 °C
Tm, main phase transition temperature [3]: 41 °C
Release at 37° C. after 2 h [4]: 12.2%
Release at RT after 60 s vortex [4]: 1.1%
Release 37° C. after 60 s vortex [4]: 17.9%
Release at RT after 7 days [4]: 4.5%

CCCCCCCCCCCCCCCC(=O)NCC(CNC(=O)CCCCCCCCCCCCCCC)OP(=O)([O-])OCC[N+](C)(C)C [Pad-PC-Pad, 1,3-palmitoylamido-1,3-deoxy-sn-glycero-2-phosphatidylcholine]
Bilayer thickness ([1]; 22 ° C.): 3.46 ± 1.07 nm
Eccentricity ([1]; 22 ° C.): 0.35
Radius ([1]; 22 ° C.): 69.96 ± 19.05 nm
Bilayer thickness [1, 5]: 4.18 ± 0.70 nm
Eccentricity [1, 5]: 0.04
Radius [1, 5]: 70.41 ± 31.77 nm
Bilayer thickness ([1]; 25 ° C.): 3.38 ± 0.94 nm
Eccentricity ([1]; 25 ° C.): 0.35
Radius ([1]; 25 ° C.): 66.22 ± 21.15 nm
Bilayer thickness ([1]; 28 ° C.): 3.34 ± 0.91 nm
Eccentricity ([1]; 28 ° C.): 0.32
Radius ([1]; 28 ° C.): 69.96 ± 16.31 nm
Bilayer thickness ([1]; 32 ° C.): 3.37 ± 0.89 nm
Eccentricity ([1]; 32 ° C.): 0.31
Radius ([1]; 32 ° C.): 69.90 ± 15.93 nm
Bilayer thickness [1, 6]: 3.42 ± 0.88 nm
Eccentricity [1, 6]: 0.88
Radius [1, 6]: 64.91 nm
Bilayer thickness ([1]; 39 ° C.): 3.37 ± 0.76 nm
Eccentricity ([1]; 39 ° C.): 0.04
Radius ([1]; 39 ° C.): 71.96 ± 5.40 nm
Bilayer thickness ([1]; 42 ° C.): 3.57 ± 0.74 nm
Eccentricity ([1]; 42 ° C.): 0.05
Radius ([1]; 42 ° C.): 71.35 ± 5.01 nm
increase in bilayer thickness after the heating cycle ([1]; temperature cycle to 42° C. including cooling to room temperature): 21%
Tm [2]: 37 °C
Tm, main phase transition temperature [3]: 37 °C
Release at 37° C. after 2 h [4]: 100%
release at 37° C. without vortexing [4]: 100%
release at 37° C. without vortexing ([4]; listed as 1,3-palmitoylamido-1,3-deoxy-sn-glycero-2-phosphatidylcholine): immediate full release
Release at RT after 60 s vortex [4]: 43.4%
Release 37° C. after 60 s vortex [4]: 100%
Release at RT after 7 days [4]: 15.5%

CCCCCCCCCCCCCCCCC(=O)NCC(CNC(=O)CCCCCCCCCCCCCCCC)OP(=O)([O-])OCC[N+](C)(C)C [Rad-PC-Rad, 1,3-diheptadecanamidopropan-2-yl (2-(trimethylammonio)ethyl) phosphate]
most probable bilayer thickness ([1]; 22 ° C.): 4.55 nm
most probable bilayer thickness [1, 5]: 4.45 nm
most probable bilayer thickness ([1]; 25 ° C.): 4.57 nm
most probable bilayer thickness ([1]; 28 ° C.): 4.55 nm
most probable bilayer thickness ([1]; 32 ° C.): 4.51 nm
most probable bilayer thickness ([1]; 35 ° C.): 4.45 nm
most probable bilayer thickness ([1]; 39 ° C.): 4.35 nm
most probable bilayer thickness ([1]; 42 ° C.): 4.4 nm
thermal stability of liposomes ([1]; temperature range between 22 and 42° C.): thermally stable up to 42 °C
change in enthalpy at main phase transition [2, 7]: 5.774 kcal/mol
main phase transition temperature [2, 7]: 44.7 °C
Tm [2]: 45 °C
Tm, main phase transition temperature [3]: 45 °C
Release at 37° C. after 2 h [4]: 6%
Release at RT after 60 s vortex [4]: 24% and 23.8%
Release 37° C. after 60 s vortex [4]: 34%
Release at RT after 7 days [4]: 9% and 9.4%
